Activity calls are given as the source filed them. The calls are words filed in the database; no cut-off is given here.
Assays:
PC-3 = assay: Antiproliferative activity against prostate cancer PC3 cell line at 20 uM by MTT method; format: functional; conditions: Homo sapiens
A-431 = assay: Antiproliferative activity against human epidermal carcinoma A431 cell line at 20 uM by MTT method; format: functional
Fusarium oxysporum = assay: Antifungal activity against Fusarium oxysporum at 0.5 mg/ml; format: functional
Phytophthora infestans = assay: Antifungal activity against Phytopthora infestans at 0.5 mg/ml; format: functional
[1] = target: Platelet-derived growth factor receptor (Homo sapiens) (UniProt P09619+P16234); assay: Inhibitory activity on PDGF-induced ERK phosphorylation in NIH3T3 cells at 20 uM; format: cell-based
Fusarium graminearum = assay: Antifungal activity against Gibberella zeae at 0.5 mg/ml; format: functional
[2] = target: Epidermal growth factor receptor (Homo sapiens) (UniProt P00533); assay: Inhibitory activity on EGF-induced ERK phosphorylation in prostate cancer PC3 cell line at 20 uM; format: cell-based; conditions: PC-3
Chain of Epidermal growth factor receptor (Homo sapiens) (P00533 whole entry): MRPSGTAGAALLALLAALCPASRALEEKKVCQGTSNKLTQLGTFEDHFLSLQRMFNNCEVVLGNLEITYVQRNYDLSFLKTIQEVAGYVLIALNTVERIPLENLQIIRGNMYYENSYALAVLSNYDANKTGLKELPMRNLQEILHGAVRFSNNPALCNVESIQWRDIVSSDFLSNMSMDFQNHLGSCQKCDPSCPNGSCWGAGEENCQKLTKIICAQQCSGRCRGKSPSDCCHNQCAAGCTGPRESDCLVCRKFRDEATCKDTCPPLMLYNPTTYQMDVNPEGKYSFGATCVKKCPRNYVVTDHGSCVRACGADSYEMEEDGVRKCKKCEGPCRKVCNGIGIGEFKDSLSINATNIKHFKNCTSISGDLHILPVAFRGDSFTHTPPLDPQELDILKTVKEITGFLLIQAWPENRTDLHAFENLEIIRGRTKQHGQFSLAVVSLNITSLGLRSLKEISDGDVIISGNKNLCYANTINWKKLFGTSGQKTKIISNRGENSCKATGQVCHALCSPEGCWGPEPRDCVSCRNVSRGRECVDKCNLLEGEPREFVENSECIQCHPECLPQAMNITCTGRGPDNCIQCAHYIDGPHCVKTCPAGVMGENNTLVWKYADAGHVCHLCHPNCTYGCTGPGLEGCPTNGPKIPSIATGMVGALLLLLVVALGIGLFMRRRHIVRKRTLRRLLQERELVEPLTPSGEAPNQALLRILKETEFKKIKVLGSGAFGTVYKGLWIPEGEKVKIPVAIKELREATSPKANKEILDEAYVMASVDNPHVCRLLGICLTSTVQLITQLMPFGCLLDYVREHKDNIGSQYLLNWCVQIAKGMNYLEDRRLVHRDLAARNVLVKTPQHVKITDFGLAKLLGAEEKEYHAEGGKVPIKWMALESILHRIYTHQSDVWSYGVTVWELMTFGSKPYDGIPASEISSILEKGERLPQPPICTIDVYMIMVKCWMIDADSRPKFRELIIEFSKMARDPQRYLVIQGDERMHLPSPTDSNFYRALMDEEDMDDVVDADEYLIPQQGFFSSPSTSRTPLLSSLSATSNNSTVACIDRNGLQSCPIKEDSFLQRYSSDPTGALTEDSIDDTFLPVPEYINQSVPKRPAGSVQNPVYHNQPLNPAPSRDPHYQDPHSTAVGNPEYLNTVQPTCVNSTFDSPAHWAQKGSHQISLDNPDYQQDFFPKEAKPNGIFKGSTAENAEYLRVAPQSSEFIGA

## Cc1cc(O)c2c(c1)C(=O)c1cc(O)cc(O)c1C2=O [EMODIN]
PC-3
  inhibition: inactive
A-431
  inhibition: inactive
Fusarium oxysporum
  inhibition at 500 µg/mL: 9.37%
Phytophthora infestans
  inhibition at 500 µg/mL: 21.2%
[1]
  Activity: inactive
Fusarium graminearum
  inhibition at 500 µg/mL: 25.7%

## COc1cc(O)c2c(c1)C(=O)c1cc(C)cc(O)c1C2=O [PHYSCION]
PC-3
  inhibition at 20 µM: 73.2%
A-431
  inhibition at 20 µM: 80.5%
Fusarium oxysporum
  inhibition at 500 µg/mL: 0%
Phytophthora infestans
  inhibition at 500 µg/mL: 19.1%
[1]
  Activity: inactive
Fusarium graminearum
  inhibition at 500 µg/mL: 10.1%

## Cc1cc(O)c2c(c1)C(=O)c1cccc(O)c1C2=O [CHRYSOPHANOL]
PC-3
  inhibition at 20 µM: 19.5%
A-431
  inhibition at 20 µM: 21.1%
Fusarium oxysporum
  inhibition at 500 µg/mL: 5.4%
Phytophthora infestans
  inhibition at 500 µg/mL: 2.4%
[1]
  Activity: inactive
Fusarium graminearum
  inhibition at 500 µg/mL: 0%

## O=C(O)c1cc(O)c2c(c1)C(=O)c1cccc(O)c1C2=O [RHEIN]
PC-3
  inhibition at 20 µM: 54.2%
A-431
  inhibition: inactive
Fusarium oxysporum
  inhibition at 500 µg/mL: 39.8%
Phytophthora infestans
  inhibition at 500 µg/mL: 39.5%
[1]
  Activity: inactive
Fusarium graminearum
  inhibition at 500 µg/mL: 33.4%

## O=C1c2cccc(O)c2C(=O)c2c(O)cc(CO)cc21 [ALOE-EMODIN]
PC-3
  inhibition at 20 µM: 63.4%
A-431
  inhibition at 20 µM: 73.6%
Fusarium oxysporum
  inhibition at 500 µg/mL: 28.8%
Phytophthora infestans
  inhibition at 500 µg/mL: 24.4%
[1]
  Activity: inactive
Fusarium graminearum
  inhibition at 500 µg/mL: 37.1%
[2]
  Activity: Active
